Measured values taken from patent US20110263527A1, “Sulfated Galactans With Antithrombotic Activity, Pharmaceutical Composition, Method for Treating or Prophylaxis of Arterial or Venous Thrombosis, Method of Extraction and Use Thereof” (priority 2008, published 2011).

Assays:
factor XII = target: T1, factor XII (Homo sapiens, UniProt P00748); experiment: Activation of factor XII in human plasma in the presence of sulfated polysaccharides; type: biochemical; settings: chromogenic substrate S-2302, FIG. 4
T1 construct: from tissue; host or cells: citrated human plasma
T1 sequence (P00748 20-615): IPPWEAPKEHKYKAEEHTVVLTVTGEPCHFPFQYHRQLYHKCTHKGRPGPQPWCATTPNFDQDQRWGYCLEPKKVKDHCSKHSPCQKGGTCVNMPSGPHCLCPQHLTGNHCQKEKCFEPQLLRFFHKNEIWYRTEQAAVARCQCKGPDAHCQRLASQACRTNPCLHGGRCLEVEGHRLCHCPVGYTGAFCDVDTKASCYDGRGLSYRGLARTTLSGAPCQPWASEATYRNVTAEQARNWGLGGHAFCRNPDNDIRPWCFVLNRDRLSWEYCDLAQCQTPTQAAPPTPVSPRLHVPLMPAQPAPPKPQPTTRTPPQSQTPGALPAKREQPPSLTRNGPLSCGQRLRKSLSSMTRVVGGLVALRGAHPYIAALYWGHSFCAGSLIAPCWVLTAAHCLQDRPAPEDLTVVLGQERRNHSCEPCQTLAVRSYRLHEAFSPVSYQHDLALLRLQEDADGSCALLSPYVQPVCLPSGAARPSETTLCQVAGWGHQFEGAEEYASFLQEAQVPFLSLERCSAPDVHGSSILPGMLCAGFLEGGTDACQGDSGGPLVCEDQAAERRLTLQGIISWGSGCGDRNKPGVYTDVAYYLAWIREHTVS
Experimental: FIG. 4 refers to the factor XII activation in human plasma incubated with non-fractionated heparin (□), native sulfated galactans (▴), ˜14 kDa fragment (◯) and a ˜5 kDa fragment ([…]). After 60 seconds of incubation at 37° C., 0.3 mM of chromogenic substrate for plasma calicrein was added. The increase in absorbance at 405 nm was expressed in milli OD/min (mean±standard error of the mean (SEM), n=3).
h) Activation of Factor XII in the Presence of Sulfated Polysaccharides
The assays for activation of factor XII were performed on plates of 96 wells. Citrated human plasma was diluted with 3 volumes of TS buffer and samples (40 μL) were incubated with different concentrations of sulfated polysaccharides (30 μL). After incubation at 37° C. for 60 seconds, were added 30 μL of chromogenic substrate (S-2302, 0.3 mM) (Chromogenix AB, Mondal, Sweden) and absorbance at 405 nm for 300 seconds was recorded. S-2302 is a chromogenic substrate for plasma calicrein activated by its precalicrein precursor through the action of activated factor XII. The method for determining the activity of factor XIIa is based on difference in absorbance between formed p-nitroanilide and original substrate. The formation rate of p-nitroanilide, i.e., the increase in absorbance at 405 nm, is proportional to enzyme activity. No activation occurred in control experiments in the absence of sulfated polysaccharide.

bleeding = tested on: bleeding; set-up: species or system Wistar rats; settings: rat, in vivo
Experimental: FIG. 6 refers to the effect on bleeding. Non-fractionated heparin (□), low molecular weight heparin (▪), native sulfated galactans (▴), and ˜5 kDa fragment ([…]) were infused into rats. After 5 minutes, the rats' tails were cut 3 mm from the tip and immersed in 40 mL of distilled water at room temperature. The loss of blood was determined after 60 minutes through the measure of hemoglobin in water. The results were expressed in μL of loss blood (mean±standard error of the mean (SEM), n=4). For clarity purposes only one SEM bar is shown for each point.
Wistar rats (both sexes, body weight ˜250 g) were anesthetized with a mixture of ketamine and xylazine, as previously described. The right carotid artery was cannulated and different polysaccharides doses were infused and allowed to circulate for 5 minutes. The rats tail was cut 3 mm from the tip and immersed in 40 mL of distilled water at room temperature. After 60 minutes, blood loss was determined by measuring the hemoglobin in water by using a spectrophotometric method (Zancan P, Mourão P A S. Venous and arterial thrombosis in rat models: dissociation of the antithrombotic effects of giycosaminoglycans. Blood Coagul Fibrin 2004; 15: 45-54). The blood volume was drawn from a standard curve based on absorbance at 540 nm.

venous thrombosis = experiment: Venous thrombosis model (vena cava, thromboplastin and stasis); type: in vivo, Wistar rats; settings: 1.00 mg/kg; FIGS. 3A and 3B
Experimental: Assays were performed in rats with different doses of non-fractionated heparin (□), low molecular weight heparin (▪), native sulfated galactans (▴), ˜14 kDa fragment (◯) and a ˜5 kDa fragment ([…]) (mean±standard error of the mean (SEM), n=3). Thrombosis induced model (A and B) in the rats' vena cava. The mean weight of the thrombus for each dose was expressed as a percentage of weight in the absence of polysaccharide, (C) Thrombosis in the arteriovenous shunt model. The mean weight of the thrombus for each dose was expressed as a percentage of the weight of thrombus in the absence of polysaccharide, (D) laser irradiation induced arterial thrombosis model in the carotid artery. Results were expressed as the mean time to complete occlusion of the artery.
The antithrombotic activity in rats was investigated using rabbit brain thromboplastin with thrombogenic stimulus. We followed the guidelines for institutional animal care and experimentation. Wistar rats (both sexes, body weight of ˜250 g) were anesthetized with a mixture of ketamine and xylazine, as already described. […] A 0.7 cm segment was prepared starting just below the branching of the right renal vein and extending until after the left renal vein which was linked. Different doses of sulfated polysaccharides were intravenously administered 1 cm below the distal lost suture and moved left for 5 minutes. […]

[1] = target: T2, thrombin (antithrombin-mediated inactivation) (Homo sapiens, UniProt P00734+P01008); experiment: Thrombin inhibition by antithrombin in the presence of sulfated polysaccharides; type: biochemical; settings: antithrombin 10 nM, thrombin 2 nM, FIG. 2A
T2 construct: purchased Haematologic Technologies Inc., Vermont, USA
Experimental: (§1) Antithrombin (10 nM) or of heparin cofactor II (15 nM) were incubated with thrombin (2 nM) or factor Xa (2 nM) in the presence of various concentrations of non-fractionated heparin (□), low molecular weight heparin (▪), native sulfated galactans (▴), ˜14 kDa fragment (◯) and a ˜5 kDa fragment ([…]). After 60 seconds, the amidolytic thrombin activity and factor Xa were determined with a chromogenic substrate specific for each protease ([…]) [mean±standard error of the mean (SEM), n=3]. No inhibition was observed when thrombin or factor Xa was incubated with sulfated polysaccharide alone over the same range of tested concentrations.
(§2) g) Thrombin Inhibition or Factor Xa by Antithrombin and Heparin Cofactor II in the Presence of Sulfated Polysaccharides
(§3) The incubations were performed on plates of 96 wells. […] After 60 seconds at 37° C., were added 25 μL chromogenic substrate (S-2238 for thrombin or S-2222 for factor Xa) (Chromogenix AB, Mondal, Sweden), and was recorded absorbance at 405 nm for 120 seconds. The rate of absorbance change was proportional to the activity of thrombin or factor Xa remaining in the incubation. […]

[2] = International Standard (85/600); cited from earlier work
[3] = target: T3, factor Xa (antithrombin-mediated inactivation) (Homo sapiens, UniProt P00742+P01008); experiment: Factor Xa inhibition by antithrombin in the presence of sulfated polysaccharides; type: biochemical; settings: antithrombin 10 nM, factor Xa 2 nM, FIG. 2B
T3 construct: thrombin or factor Xa 2 nM (Haematologic Technologies Inc., Vermont, USA); purchased Haematologic Technologies Inc., Vermont, USA
Experimental: as §1, §2, §3

[4] = target: T4, thrombin (heparin cofactor II-mediated inactivation) (Homo sapiens, UniProt P00734+P05546); experiment: Thrombin inhibition by heparin cofactor II in the presence of sulfated polysaccharides; type: biochemical; settings: heparin cofactor II 15 nM, thrombin 2 nM, FIG. 2C
T4 construct: purchased Haematologic Technologies Inc., Vermont, USA
Experimental: as §1, §2, §3

T3 sequence (P00742 41-179 limits assumed): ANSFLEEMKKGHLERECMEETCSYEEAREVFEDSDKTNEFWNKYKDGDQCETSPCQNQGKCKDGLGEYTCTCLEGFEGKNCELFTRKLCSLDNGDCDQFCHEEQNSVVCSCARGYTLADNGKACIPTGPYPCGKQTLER
T3 sequence (P00742 235-488 limits assumed): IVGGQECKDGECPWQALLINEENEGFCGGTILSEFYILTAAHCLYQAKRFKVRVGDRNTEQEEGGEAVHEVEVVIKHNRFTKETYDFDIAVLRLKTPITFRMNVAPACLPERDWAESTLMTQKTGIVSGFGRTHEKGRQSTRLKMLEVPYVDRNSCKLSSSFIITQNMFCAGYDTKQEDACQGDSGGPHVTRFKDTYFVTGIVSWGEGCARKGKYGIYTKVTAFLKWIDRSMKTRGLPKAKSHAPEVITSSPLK
T3 sequence (P01008 33-464): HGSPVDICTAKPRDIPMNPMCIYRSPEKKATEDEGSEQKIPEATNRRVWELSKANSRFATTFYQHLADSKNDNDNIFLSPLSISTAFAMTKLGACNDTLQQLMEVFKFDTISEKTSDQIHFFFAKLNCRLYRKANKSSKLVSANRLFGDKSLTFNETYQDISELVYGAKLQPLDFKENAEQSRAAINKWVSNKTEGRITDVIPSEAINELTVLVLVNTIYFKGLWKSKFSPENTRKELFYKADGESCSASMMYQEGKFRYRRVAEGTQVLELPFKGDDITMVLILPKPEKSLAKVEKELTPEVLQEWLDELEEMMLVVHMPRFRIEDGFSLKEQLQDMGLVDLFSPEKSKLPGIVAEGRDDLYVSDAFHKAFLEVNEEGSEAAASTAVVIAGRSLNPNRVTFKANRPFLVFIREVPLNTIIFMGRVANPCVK

| Substance | factor XII activation (factor XII) | effect on bleeding (hemorrhagic effect, bleeding time) (bleeding) | antithrombotic activity (venous thrombosis) | inactivation of thrombin by antithrombin [1] | activity of the standard [2] [IU/mg] | inactivation of factor Xa by antithrombin [3] | inactivation of thrombin by heparin cofactor II [4] |
| --- | --- | --- | --- | --- | --- | --- | --- |
| dextran sulfate | activates factor XII | – | – | – | – | – | – |
| low molecular weight heparin | – | had no effect | approximately 70% | more active than ˜5 kDa fragment | 66 | more active than ˜5 kDa fragment | more active than ˜5 kDa fragment |
